Marks after values point to notes of the source that are not given here.

The experiment concerns golden apple snail (Pomacea canaliculata (Lamarck)). Put plainly: Hurting rate and death rate of golden apple snails on SDS-added paper mat round boards on wet paddy soil in Petri dishes. Conditions: for Death Rate (%) / Hurting Rate (%): average after three days, paper mat. The class given is in vivo. On the procedure:
The glutinous solutions with different SDS densities (100, 500, 1000, 2000, 5000, 7500, and 10000 ppm) are prepared in advance, and the paper mat made by YUEN FOONG YU PAPER MFG Co., Ltd is also cut into many round boards having a diameter of 9 cm.
The test is done by the following steps. At first, each of the round boards is dripped with 2 ml of one of the glutinous solutions respectively. The round boards are dried in an oven at a temperature of 30° C. Then, the soil taken from the paddy field is added with water to simulate the natural environment. Each of the dried SDS-added round boards is bedded on 50 g of the wet soil in a Petri dish respectively. Finally, each of the dishes is added with 10 ml water and put 10 golden apple snails thereon.
Two other groups are prepared for comparison. […] All the three groups are observed in a greenhouse.

[1] abbreviates: Conc. of SDS solution 100 ppm, snail size 3.28 ± 0.43 g/per snail.
[2] abbreviates: Conc. of SDS solution 500 ppm, snail size 3.28 ± 0.43 g/per snail.
The mark [3] stands for this setting: Conc. of SDS solution 1000 ppm, snail size 3.28 ± 0.43 g/per snail.
The mark [4] stands for this setting: Conc. of SDS solution 2500 ppm, snail size 0.82 ± 0.26 g/per snail.
[5] abbreviates: Conc. of SDS solution 5000 ppm, snail size 0.82 ± 0.26 g/per snail.
Where [6] appears, read: Conc. of SDS solution 7500 ppm, snail size 0.82 ± 0.26 g/per snail.
[7] abbreviates: Conc. of SDS solution 10000 ppm, snail size 0.82 ± 0.26 g/per snail.

`CCCCCCCCCCCCOS(=O)(=O)[O-].[Na+]` [SDS, sodium dodecyl sulfate]: the “Death Rate (%)” value reads like this: under setting [1], 0.00%; under setting [2], 3.33%; under setting [3], 10.00%; (Conc. of SDS solution 2000 ppm, snail size 3.28 ± 0.43 g/per snail) 10.00%; under setting [4], 100.00%; under setting [5], 100.00%. Besides, the “Death Rate (%)” value came to 100.00% under setting [6] and 100.00% under setting [7]. Also, the “Hurting Rate (%)” value is reported as 3.33* % under setting [1]; 6.67% under setting [2]; 23.33% under setting [3]; 100.00* % under setting [4]; 100.00% under setting [5]; 100.00% under setting [6]. Besides, the “Hurting Rate (%)” value under setting [7] is 100.00%. Under “smaller snails, SDS concentrations above 2500 ppm (summary of Table 2)”, the hurting rate was around 100.00%.

The record behind these values is patent publication US20020172704A1, “Planting method and biodegradable material for preventing pests” (priority 2001, published 2002).
